Test results published in the supplement of paper PMC10307832.

Columns and labels:
Assay in all cases: relative viability (nuclei count vs DMSO), 5 days (fraction); higher = more cells survive
[1] = system: NCI-H2347
Procedure, shortened: (§1)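 Lung cancer cell lines were seeded in 1536-well plates and dosed by pin tool the next day, with either a single drug or a fixed anchor-drug dose combined with five library-drug doses (not always all listed) spaced in √10 steps. Five days later, one step fixed the cells and stained their nuclei (final 0.05% Triton X-100, 1% formaldehyde, 1 ug/ml Hoechst), and nuclei were counted on 4× images. Relative viability is the nuclei count in treated wells divided by the count in vehicle wells, and each value is the median of duplicate plates.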

[2] = system: NCI-H838
Procedure, shortened: as §1

[3] = system: NCI-H2009
Procedure, shortened: as §1

[4] = system: NCI-H1993
Procedure, shortened: as §1

[5] = system: SK-MES-1
Procedure, shortened: as §1

[6] = system: PC-14
Procedure, shortened: as §1

[7] = system: NCI-H1355
Procedure, shortened: as §1

[8] = system: NCI-H1755
Procedure, shortened: as §1

[9] = system: NCI-H1734
Procedure, shortened: as §1

[10] = system: NCI-H2228
Procedure, shortened: as §1

[11] = system: HCC-15
Procedure, shortened: as §1

[12] = system: HARA
Procedure, shortened: as §1

[13] = system: NCI-H2170
Procedure, shortened: as §1

[14] = system: COR-L23
Procedure, shortened: as §1

[15] = system: HOP-62
Procedure, shortened: as §1

[16] = system: UMC-11
Procedure, shortened: as §1

[17] = system: EKVX
Procedure, shortened: as §1

[18] = system: COR-L 105
Procedure, shortened: as §1

[19] = system: NCI-H647
Procedure, shortened: as §1

[20] = system: NCI-H358
Procedure, shortened: as §1

Q: Which relative viability ([1]; first compound 0.005 µM) does the source give for `CC1(C)CCC(c2ccc(Cl)cc2)=C(CN2CCN(c3ccc(C(=O)NS(=O)(=O)c4ccc(N[C@H](CCN5CCOCC5)CSc5ccccc5)c(S(=O)(=O)C(F)(F)F)c4)cc3)CC2)C1` [Navitoclax] + C[C@@H](Oc1cc(-c2cnn(C3CCNCC3)c2)cnc1N)c1c(Cl)ccc(F)c1Cl [Crizotinib] (partner 1 µM) here?
A: Its relative viability is 0.653.

Q: What about the relative viability ([1]; first compound 0.01581 µM) of the same molecule?
A: Its relative viability is 0.602.

Q: What about the relative viability ([1]; first compound 0.05 µM) of the same molecule?
A: The relative viability was 0.2.

Q: What about the relative viability ([1]; first compound 0.1581 µM) of the same molecule?
A: The relative viability was 0.681.

Q: What about the relative viability ([1]; first compound 0.5 µM) of the same molecule?
A: Its relative viability is 0.705.

Q: And the relative viability ([2]; first compound 0.005 µM)?
A: The relative viability was 0.794.

Q: And the relative viability ([2]; first compound 0.01581 µM)?
A: The relative viability was 0.885.

Q: And the relative viability ([2]; first compound 0.05 µM)?
A: Its relative viability is 1.01.

Q: What about the relative viability ([2]; first compound 0.1581 µM) of the same molecule?
A: The relative viability was 0.802.

Q: And the relative viability ([2]; first compound 0.5 µM)?
A: The relative viability was 0.817.

Q: And the relative viability ([3]; first compound 0.005 µM)?
A: The relative viability was 0.972.

Q: What about the relative viability ([3]; first compound 0.01581 µM) of the same molecule?
A: Its relative viability is 1.05.

Q: And the relative viability ([3]; first compound 0.05 µM)?
A: Its relative viability is 1.1.

Q: What about the relative viability ([3]; first compound 0.1581 µM) of the same molecule?
A: Its relative viability is 1.13.

Q: And the relative viability ([3]; first compound 0.5 µM)?
A: Its relative viability is 1.05.

Q: What about the relative viability ([4]; first compound 0.005 µM) of the same molecule?
A: The relative viability was 0.89.

Q: What about the relative viability ([4]; first compound 0.01581 µM) of the same molecule?
A: The relative viability was 1.

Q: What about the relative viability ([4]; first compound 0.05 µM) of the same molecule?
A: The relative viability was 0.848.

Q: And the relative viability ([4]; first compound 0.1581 µM)?
A: The relative viability was 0.853.

Q: And the relative viability ([4]; first compound 0.5 µM)?
A: The relative viability was 0.866.

Q: And the relative viability ([5]; first compound 0.005 µM)?
A: The relative viability was 0.953.

Q: And the relative viability ([5]; first compound 0.01581 µM)?
A: The relative viability was 1.07.

Q: And the relative viability ([5]; first compound 0.05 µM)?
A: The relative viability was 1.08.

Q: And the relative viability ([5]; first compound 0.1581 µM)?
A: The relative viability was 0.953.

Q: What about the relative viability ([5]; first compound 0.5 µM) of the same molecule?
A: Its relative viability is 0.978.

Q: And the relative viability ([6]; first compound 0.005 µM)?
A: The relative viability was 0.905.

Q: What about the relative viability ([6]; first compound 0.01581 µM) of the same molecule?
A: The relative viability was 0.977.

Q: And the relative viability ([6]; first compound 0.05 µM)?
A: Its relative viability is 0.951.

Q: What about the relative viability ([6]; first compound 0.1581 µM) of the same molecule?
A: Its relative viability is 0.886.

Q: And the relative viability ([6]; first compound 0.5 µM)?
A: The relative viability was 0.952.

Q: What about the relative viability ([7]; first compound 0.005 µM) of the same molecule?
A: The relative viability was 1.03.

Q: And the relative viability ([7]; first compound 0.01581 µM)?
A: Its relative viability is 1.15.

Q: And the relative viability ([7]; first compound 0.05 µM)?
A: Its relative viability is 1.02.

Q: And the relative viability ([7]; first compound 0.1581 µM)?
A: The relative viability was 1.05.

Q: What about the relative viability ([7]; first compound 0.5 µM) of the same molecule?
A: Its relative viability is 1.03.

Q: What about the relative viability ([8]; first compound 0.005 µM) of the same molecule?
A: The relative viability was 0.823.

Q: What about the relative viability ([8]; first compound 0.01581 µM) of the same molecule?
A: The relative viability was 0.903.

Q: What about the relative viability ([8]; first compound 0.05 µM) of the same molecule?
A: The relative viability was 0.715.

Q: And the relative viability ([8]; first compound 0.1581 µM)?
A: The relative viability was 0.859.

Q: What about the relative viability ([8]; first compound 0.5 µM) of the same molecule?
A: Its relative viability is 0.89.

Q: What about the relative viability ([9]; first compound 0.005 µM) of the same molecule?
A: The relative viability was 0.705.

Q: What about the relative viability ([9]; first compound 0.01581 µM) of the same molecule?
A: Its relative viability is 0.681.

Q: And the relative viability ([9]; first compound 0.1581 µM)?
A: Its relative viability is 0.785.

Q: And the relative viability ([9]; first compound 0.5 µM)?
A: Its relative viability is 0.693.

Q: And the relative viability ([10]; first compound 0.005 µM)?
A: Its relative viability is 0.633.

Q: What about the relative viability ([10]; first compound 0.01581 µM) of the same molecule?
A: The relative viability was 0.553.

Q: And the relative viability ([10]; first compound 0.05 µM)?
A: Its relative viability is 0.573.

Q: And the relative viability ([10]; first compound 0.1581 µM)?
A: The relative viability was 0.454.

Q: What about the relative viability ([10]; first compound 0.5 µM) of the same molecule?
A: The relative viability was 0.52.

Q: What about the relative viability ([11]; first compound 0.005 µM) of the same molecule?
A: Its relative viability is 0.802.

Q: And the relative viability ([11]; first compound 0.01581 µM)?
A: Its relative viability is 0.848.

Q: What about the relative viability ([11]; first compound 0.05 µM) of the same molecule?
A: Its relative viability is 0.883.

Q: And the relative viability ([11]; first compound 0.1581 µM)?
A: The relative viability was 0.822.

Q: And the relative viability ([11]; first compound 0.5 µM)?
A: Its relative viability is 0.786.

Q: What about the relative viability ([12]; first compound 0.005 µM) of the same molecule?
A: Its relative viability is 1.09.

Q: What about the relative viability ([12]; first compound 0.01581 µM) of the same molecule?
A: The relative viability was 1.16.

Q: What about the relative viability ([12]; first compound 0.05 µM) of the same molecule?
A: Its relative viability is 0.944.

Q: And the relative viability ([12]; first compound 0.1581 µM)?
A: Its relative viability is 0.907.

Q: And the relative viability ([12]; first compound 0.5 µM)?
A: The relative viability was 1.01.

Q: And the relative viability ([13]; first compound 0.005 µM)?
A: Its relative viability is 1.06.

Q: And the relative viability ([13]; first compound 0.01581 µM)?
A: Its relative viability is 1.28.

Q: And the relative viability ([13]; first compound 0.05 µM)?
A: Its relative viability is 1.21.

Q: What about the relative viability ([13]; first compound 0.1581 µM) of the same molecule?
A: The relative viability was 1.06.

Q: What about the relative viability ([13]; first compound 0.5 µM) of the same molecule?
A: The relative viability was 1.05.

Q: What about the relative viability ([14]; first compound 0.005 µM) of the same molecule?
A: The relative viability was 0.618.

Q: And the relative viability ([14]; first compound 0.01581 µM)?
A: The relative viability was 0.712.

Q: What about the relative viability ([14]; first compound 0.05 µM) of the same molecule?
A: Its relative viability is 0.686.

Q: What about the relative viability ([14]; first compound 0.1581 µM) of the same molecule?
A: Its relative viability is 0.664.

Q: And the relative viability ([14]; first compound 0.5 µM)?
A: Its relative viability is 0.643.

Q: What about the relative viability ([15]; first compound 0.005 µM) of the same molecule?
A: Its relative viability is 0.965.

Q: And the relative viability ([15]; first compound 0.01581 µM)?
A: The relative viability was 1.09.

Q: What about the relative viability ([15]; first compound 0.05 µM) of the same molecule?
A: Its relative viability is 0.926.

Q: What about the relative viability ([15]; first compound 0.1581 µM) of the same molecule?
A: Its relative viability is 0.917.

Q: And the relative viability ([15]; first compound 0.5 µM)?
A: Its relative viability is 1.03.

Q: What about the relative viability ([16]; first compound 0.005 µM) of the same molecule?
A: Its relative viability is 0.646.

Q: And the relative viability ([16]; first compound 0.01581 µM)?
A: Its relative viability is 0.583.

Q: And the relative viability ([16]; first compound 0.1581 µM)?
A: Its relative viability is 0.636.

Q: And the relative viability ([16]; first compound 0.5 µM)?
A: Its relative viability is 0.401.

Q: What about the relative viability ([17]; first compound 0.005 µM) of the same molecule?
A: The relative viability was 1.

Q: And the relative viability ([17]; first compound 0.01581 µM)?
A: Its relative viability is 1.16.

Q: What about the relative viability ([17]; first compound 0.05 µM) of the same molecule?
A: The relative viability was 1.08.

Q: What about the relative viability ([17]; first compound 0.1581 µM) of the same molecule?
A: Its relative viability is 0.93.

Q: And the relative viability ([17]; first compound 0.5 µM)?
A: The relative viability was 0.888.

Q: What about the relative viability ([18]; first compound 0.005 µM) of the same molecule?
A: The relative viability was 0.651.

Q: What about the relative viability ([18]; first compound 0.01581 µM) of the same molecule?
A: Its relative viability is 0.98.

Q: What about the relative viability ([18]; first compound 0.05 µM) of the same molecule?
A: Its relative viability is 0.773.

Q: And the relative viability ([18]; first compound 0.1581 µM)?
A: The relative viability was 0.927.

Q: And the relative viability ([18]; first compound 0.5 µM)?
A: Its relative viability is 0.699.

Q: And the relative viability ([19]; first compound 0.005 µM)?
A: The relative viability was 1.16.

Q: What about the relative viability ([19]; first compound 0.01581 µM) of the same molecule?
A: Its relative viability is 1.18.

Q: What about the relative viability ([19]; first compound 0.05 µM) of the same molecule?
A: Its relative viability is 1.42.

Q: What about the relative viability ([19]; first compound 0.1581 µM) of the same molecule?
A: The relative viability was 0.874.

Q: And the relative viability ([19]; first compound 0.5 µM)?
A: The relative viability was 0.896.

Q: What about the relative viability ([20]; first compound 0.005 µM) of the same molecule?
A: The relative viability was 0.567.

Q: What about the relative viability ([20]; first compound 0.01581 µM) of the same molecule?
A: Its relative viability is 0.595.

Q: And the relative viability ([20]; first compound 0.05 µM)?
A: Its relative viability is 0.634.

Q: What about the relative viability ([20]; first compound 0.1581 µM) of the same molecule?
A: Its relative viability is 0.506.

Q: And the relative viability ([20]; first compound 0.5 µM)?
A: Its relative viability is 0.743.
